Laboratory results from US20220088225A1, “VIRAL TRANSDUCTION USING POLOXAMINES” (SIRION Biotech GmbH, priority 2018, published 2022).

Test system: A2780 cells
Assay: Lentiviral transduction of adherent A2780 cells, Luciferase-expressing lentivirus, luminescence (RLU)
Assay type: cell-based, human
Method: Human ovarian carcinoma cells A2780 (Sigma Aldrich) and human lung adenocarcinoma cells NCl H1838 (ATTC) were grown in RPMI 1640 medium supplemented with 10% (vol/vol) fetal calf serum (FCS; Biochrom) and 2 mM L-glutamine (PAN Biotech).
The lentiviral transduction vectors p-Ubic-Luc2-IRES-Puro and p-CMV-copGFP-IRES-Puro allow expression of Luciferase driven by Ubic promoter or copGFP by CMV promoter, respectively. Replication-defective lentiviral particles were produced by transient co-transduction of HEK293-TN cells in a T75 flask with 10 μg of packaging plasmids pMDL, pVSV-G, pRev (Roche) and 2 μg of transduction vector using Lipofectamine 2000 (Life Technologies) as transduction reagent according to the manufacturer's instructions. […]
To quantify total viral transgene expression by Luciferase, 100 μl Steady-Glo reagent (Promega) was added to the cells 3 days after viral transduction. The plate with the cells was put into a Tecan Infinite M200 plate reader and shaken for 30 seconds. After incubation for 10 minutes at room temperature, luminescence signal was measured by the plate reader. […]
As controls virus only (with H2O instead of adjuvant), or […] Polybrene was added to the wells before transduction. […] Three days post transduction the efficiency of transduction was assessed by measuring luciferase activity on a plate reader. Results are presented in relative luminescence units (RLU). […]

With Protamine sulfate the “increase of total transgene expression compared to virus only” value (5 μg/ml Protamine sulfate alone) was 1.14 fold and the “increase of total transgene expression compared to virus only” value (40 μg/ml Protamine sulfate alone) was 2.08 fold.
